Key:
Test in all cases: relative viability (nuclei count vs DMSO), 5 days (fraction); higher = more cells survive
[1] = system: NCI-H1563
In short: (§1)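 After 5 days of treatment, lung cancer cells in 1536-well plates were fixed and stained in a single step (final 0.05% Triton X-100, 1% formaldehyde, 1 ug/ml Hoechst) and their nuclei counted on 4× images. Treatment had been applied by pin tool the day after seeding as one drug alone or as a fixed anchor-drug dose with five library-drug doses (not always all listed) in √10 steps. Relative viability is the nuclei count of treated wells divided by that of vehicle wells, and values are medians of duplicate plates.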

[2] = system: NCI-H1299
In short: as §1

[3] = system: IA-LM
In short: as §1

[4] = system: NCI-H1703
In short: as §1

[5] = system: Calu-6
In short: as §1

[6] = system: EBC-1
In short: as §1

[7] = system: A549
In short: as §1

[8] = system: NCI-H1648
In short: as §1

[9] = system: NCI-H522
In short: as §1

[10] = system: NCI-H2342
In short: as §1

[11] = system: SW 900
In short: as §1

`O=C(O)CCCCC(CCSCc1ccccc1)SCc1ccccc1` (stereo unspecified) [CPI-613] + C[C@]1(O)C[C@@H](c2nc(-c3ccc4ccc(-c5ccccc5)nc4c3)c3c(N)nccn32)C1 [Linsitinib] (partner 1 µM) was tested. Which relative viability ([1]; first compound 5 µM) did it give?
The relative viability was 1.26.

And the relative viability ([1]; first compound 15.81 µM)?
The relative viability was 1.21.

What about the relative viability ([1]; first compound 50 µM) of the same compound?
Its relative viability is 1.23.

And the relative viability ([1]; first compound 158.11 µM)?
Its relative viability is 0.454.

And the relative viability ([1]; first compound 500 µM)?
Its relative viability is 0.208.

And the relative viability ([2]; first compound 5 µM)?
The relative viability was 0.933.

And the relative viability ([2]; first compound 15.81 µM)?
Its relative viability is 0.894.

And the relative viability ([2]; first compound 50 µM)?
Its relative viability is 0.869.

And the relative viability ([2]; first compound 158.11 µM)?
The relative viability was 1.

And the relative viability ([2]; first compound 500 µM)?
The relative viability was 0.957.

What about the relative viability ([3]; first compound 5 µM) of the same compound?
The relative viability was 0.703.

What about the relative viability ([3]; first compound 15.81 µM) of the same compound?
The relative viability was 0.364.

What about the relative viability ([3]; first compound 50 µM) of the same compound?
The relative viability was 0.432.

And the relative viability ([3]; first compound 158.11 µM)?
The relative viability was 0.527.

And the relative viability ([3]; first compound 500 µM)?
Its relative viability is 0.358.

What about the relative viability ([4]; first compound 5 µM) of the same compound?
The relative viability was 1.21.

What about the relative viability ([4]; first compound 15.81 µM) of the same compound?
The relative viability was 0.809.

What about the relative viability ([4]; first compound 50 µM) of the same compound?
The relative viability was 0.568.

What about the relative viability ([4]; first compound 158.11 µM) of the same compound?
Its relative viability is 0.17.

And the relative viability ([4]; first compound 500 µM)?
The relative viability was 0.439.

What about the relative viability ([5]; first compound 5 µM) of the same compound?
Its relative viability is 1.02.

And the relative viability ([5]; first compound 50 µM)?
Its relative viability is 0.726.

What about the relative viability ([5]; first compound 158.11 µM) of the same compound?
Its relative viability is 0.905.

What about the relative viability ([5]; first compound 500 µM) of the same compound?
Its relative viability is 0.658.

What about the relative viability ([6]; first compound 5 µM) of the same compound?
Its relative viability is 0.874.

What about the relative viability ([6]; first compound 15.81 µM) of the same compound?
Its relative viability is 0.695.

What about the relative viability ([6]; first compound 50 µM) of the same compound?
Its relative viability is 0.593.

What about the relative viability ([6]; first compound 158.11 µM) of the same compound?
Its relative viability is 0.786.

What about the relative viability ([6]; first compound 500 µM) of the same compound?
Its relative viability is 0.608.

And the relative viability ([7]; first compound 5 µM)?
Its relative viability is 0.529.

What about the relative viability ([7]; first compound 15.81 µM) of the same compound?
Its relative viability is 0.521.

What about the relative viability ([7]; first compound 50 µM) of the same compound?
Its relative viability is 0.588.

And the relative viability ([7]; first compound 158.11 µM)?
The relative viability was 0.722.

And the relative viability ([7]; first compound 500 µM)?
The relative viability was 0.597.

What does the source list for `O=C(O)CCCCC(CCSCc1ccccc1)SCc1ccccc1` (stereo unspecified) [CPI-613] + Cc1nc(NC(=O)N2CCC[C@H]2C(N)=O)sc1-c1ccnc(C(C)(C)C(F)(F)F)c1 [Alpelisib] (partner 2 µM)?
relative viability ([1]; first compound 5 µM): 0.958; relative viability ([1]; first compound 15.81 µM): 0.938; relative viability ([1]; first compound 50 µM): 0.939; relative viability ([1]; first compound 158.11 µM): 0.796; relative viability ([1]; first compound 500 µM): 0.113; relative viability ([2]; first compound 5 µM): 1.02; relative viability ([2]; first compound 15.81 µM): 1.04; relative viability ([2]; first compound 50 µM): 1.04; relative viability ([2]; first compound 158.11 µM): 1.09; relative viability ([2]; first compound 500 µM): 1.08; relative viability ([3]; first compound 5 µM): 0.614; relative viability ([3]; first compound 15.81 µM): 0.679; relative viability ([3]; first compound 50 µM): 0.644; relative viability ([3]; first compound 158.11 µM): 0.399; relative viability ([3]; first compound 500 µM): 0.0122; relative viability ([4]; first compound 5 µM): 0.381; relative viability ([4]; first compound 15.81 µM): 0.484; relative viability ([4]; first compound 50 µM): 0.275; relative viability ([4]; first compound 158.11 µM): 0.208; relative viability ([4]; first compound 500 µM): 0.0611; relative viability ([5]; first compound 5 µM): 0.997; relative viability ([5]; first compound 15.81 µM): 0.876; relative viability ([5]; first compound 50 µM): 0.891; relative viability ([5]; first compound 158.11 µM): 0.174; relative viability ([5]; first compound 500 µM): 0.0521; relative viability ([6]; first compound 5 µM): 0.823; relative viability ([6]; first compound 15.81 µM): 0.651; relative viability ([6]; first compound 50 µM): 0.678; relative viability ([6]; first compound 158.11 µM): 0.199; relative viability ([6]; first compound 500 µM): 0.0384; relative viability ([7]; first compound 5 µM): 0.859; relative viability ([7]; first compound 15.81 µM): 0.675; relative viability ([7]; first compound 50 µM): 0.69; relative viability ([7]; first compound 158.11 µM): 0.384; relative viability ([7]; first compound 500 µM): 0.0243

How did the relative viability ([8]; first compound 5 µM) turn out when `O=C(O)CCCCC(CCSCc1ccccc1)SCc1ccccc1` (stereo unspecified) [CPI-613] + Nc1nc2[nH]cc(CCc3ccc(C(=O)N[C@@H](CCC(=O)O)C(=O)O)cc3)c2c(=O)[nH]1 [Pemetrexed] (partner 0.2 µM) was run?
Its relative viability is 0.639.

What about the relative viability ([8]; first compound 15.81 µM) of the same compound?
The relative viability was 0.623.

And the relative viability ([8]; first compound 50 µM)?
The relative viability was 0.823.

What about the relative viability ([8]; first compound 158.11 µM) of the same compound?
The relative viability was 0.527.

And the relative viability ([8]; first compound 500 µM)?
Its relative viability is 0.139.

And the relative viability ([1]; first compound 5 µM)?
The relative viability was 0.732.

What about the relative viability ([1]; first compound 15.81 µM) of the same compound?
The relative viability was 0.713.

And the relative viability ([1]; first compound 50 µM)?
The relative viability was 0.727.

And the relative viability ([1]; first compound 158.11 µM)?
The relative viability was 0.631.

What about the relative viability ([1]; first compound 500 µM) of the same compound?
Its relative viability is 0.394.

And the relative viability ([9]; first compound 5 µM)?
The relative viability was 1.04.

And the relative viability ([9]; first compound 15.81 µM)?
Its relative viability is 1.06.

And the relative viability ([9]; first compound 50 µM)?
The relative viability was 1.3.

And the relative viability ([9]; first compound 158.11 µM)?
The relative viability was 0.857.

And the relative viability ([9]; first compound 500 µM)?
Its relative viability is 0.473.

And the relative viability ([10]; first compound 5 µM)?
The relative viability was 0.743.

What about the relative viability ([10]; first compound 15.81 µM) of the same compound?
Its relative viability is 0.761.

What about the relative viability ([10]; first compound 50 µM) of the same compound?
The relative viability was 0.804.

And the relative viability ([10]; first compound 158.11 µM)?
Its relative viability is 0.744.

And the relative viability ([10]; first compound 500 µM)?
The relative viability was 0.785.

And the relative viability ([11]; first compound 5 µM)?
Its relative viability is 0.451.

What about the relative viability ([11]; first compound 50 µM) of the same compound?
The relative viability was 0.47.

And the relative viability ([11]; first compound 158.11 µM)?
The relative viability was 0.372.

And the relative viability ([11]; first compound 500 µM)?
Its relative viability is 0.0088.

How did the relative viability ([8]; first compound 0.08 µM) turn out when `O=c1[nH]c2ccccc2n1C1CCN(CCCC(c2ccc(F)cc2)c2ccc(F)cc2)CC1` [Pimozide] + CC(=O)Nc1cccc(-n2c(=O)n(C3CC3)c(=O)c3c(Nc4ccc(I)cc4F)n(C)c(=O)c(C)c32)c1 [Trametinib] (partner 0.02 µM) was run?
Its relative viability is 0.423.

And the relative viability ([8]; first compound 0.8 µM)?
Its relative viability is 0.34.

What about the relative viability ([8]; first compound 2.53 µM) of the same compound?
The relative viability was 0.373.

And the relative viability ([8]; first compound 8 µM)?
The relative viability was 0.416.

And the relative viability ([9]; first compound 0.08 µM)?
The relative viability was 0.738.

And the relative viability ([9]; first compound 0.253 µM)?
The relative viability was 0.751.

What about the relative viability ([9]; first compound 0.8 µM) of the same compound?
Its relative viability is 0.733.

What about the relative viability ([9]; first compound 2.53 µM) of the same compound?
The relative viability was 0.746.

What about the relative viability ([9]; first compound 8 µM) of the same compound?
The relative viability was 0.811.

What about the relative viability ([10]; first compound 0.08 µM) of the same compound?
The relative viability was 0.661.

And the relative viability ([10]; first compound 0.253 µM)?
Its relative viability is 0.872.

And the relative viability ([10]; first compound 0.8 µM)?
Its relative viability is 0.676.

And the relative viability ([10]; first compound 2.53 µM)?
Its relative viability is 0.826.

What about the relative viability ([10]; first compound 8 µM) of the same compound?
Its relative viability is 0.759.

What about the relative viability ([11]; first compound 0.08 µM) of the same compound?
The relative viability was 0.743.

What about the relative viability ([11]; first compound 0.253 µM) of the same compound?
The relative viability was 0.801.

And the relative viability ([11]; first compound 2.53 µM)?
The relative viability was 0.72.

What about the relative viability ([11]; first compound 8 µM) of the same compound?
Its relative viability is 0.802.

Source: the supplement of paper PMC10307832
